Measurements published in ChEMBL document CHEMBL4680337, “Synthetic 1,4-Naphthoquinones inhibit P2X7 receptors in murine neuroblastoma cells” (Bioorg Med Chem, 2021).
Blank lines part the entries; values can stand above or below the compound they belong to. Calls of active or inactive are those of the source. No cut-off for these calls is given here.

Key:
Format in all cases: cell-based
[1] = molecular target: T1, P2X purinoceptor 7 (Mus musculus) (UniProt Q9Z1M0); experiment: Antagonist activity at P2X7R in mouse N2a cells assessed as reduction in ATP-induced calcium influx at 5 uM incubated for 1 hr by Fura-2AM dye based spectrofluorometry relative to control
T1 sequence (whole entry): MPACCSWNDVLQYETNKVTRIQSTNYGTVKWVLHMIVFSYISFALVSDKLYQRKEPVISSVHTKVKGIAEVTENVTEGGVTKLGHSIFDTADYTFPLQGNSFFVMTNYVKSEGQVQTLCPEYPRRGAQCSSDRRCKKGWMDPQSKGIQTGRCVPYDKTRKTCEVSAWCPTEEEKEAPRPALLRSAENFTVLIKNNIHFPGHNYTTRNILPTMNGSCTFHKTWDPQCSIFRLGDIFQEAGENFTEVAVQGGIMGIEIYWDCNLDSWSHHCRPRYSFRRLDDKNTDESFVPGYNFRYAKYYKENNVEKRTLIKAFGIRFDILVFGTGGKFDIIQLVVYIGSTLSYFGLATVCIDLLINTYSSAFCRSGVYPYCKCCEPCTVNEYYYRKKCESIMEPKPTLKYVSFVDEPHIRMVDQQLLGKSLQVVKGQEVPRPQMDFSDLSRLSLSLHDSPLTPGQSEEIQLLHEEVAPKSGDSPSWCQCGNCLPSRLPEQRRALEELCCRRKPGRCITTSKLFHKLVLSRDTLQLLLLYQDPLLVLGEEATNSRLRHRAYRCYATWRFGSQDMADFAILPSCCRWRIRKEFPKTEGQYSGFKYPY

[2] = molecular target: T1, P2X purinoceptor 7 (Mus musculus); experiment: Antagonist activity at P2X7R in mouse N2a cells assessed as reduction in ATP-induced calcium influx at 10 uM incubated for 1 hr by Fura-2AM dye based spectrofluorometry relative to control
[3] = molecular target: T1, P2X purinoceptor 7 (Mus musculus); experiment: Antagonist activity at P2X7R in mouse N2a cells assessed as inhibition of ATP-induced NO production at 10 uM incubated for 1 hr by using DAF-FM probe based fluorescence assay
[4] = molecular target: T1, P2X purinoceptor 7 (Mus musculus); experiment: Antagonist activity at P2X7R in mouse N2a cells assessed as reduction in ATP-induced YO-PRO-1 uptake by cells at 10 uM incubated for 1 hr by fluorescence based assay relative to control
[5] = molecular target: T1, P2X purinoceptor 7 (Mus musculus); experiment: Antagonist activity at P2X7R in mouse N2a cells assessed as inhibition of ATP-induced ROS production at 10 uM incubated for 1 hr by using H2DCF-DA probe based fluorescence assay
[6] = molecular target: T1, P2X purinoceptor 7 (Mus musculus); experiment: Antagonist activity at P2X7R in mouse N2a cells assessed as cytoprotective activity against ATP-induced cell death by measuring increase in cell viability at 10 uM incubated for 1 hr followed by ATP addition and measured after 48 hrs by MTT assay relative to control; settings: time 49.0 hrs
[7] = molecular target: T1, P2X purinoceptor 7 (Mus musculus); experiment: Antagonist activity at P2X7R in mouse N2a cells assessed as inhibition of ATP-induced NO production at 50 uM incubated for 1 hr by using DAF-FM probe based fluorescence assay
[8] = molecular target: T1, P2X purinoceptor 7 (Mus musculus); experiment: Antagonist activity at P2X7R in mouse N2a cells assessed as reduction in ATP-induced calcium influx at 50 uM incubated for 1 hr by Fura-2AM dye based spectrofluorometry
[9] = molecular target: T1, P2X purinoceptor 7 (Mus musculus); experiment: Antagonist activity at P2X7R in mouse N2a cells assessed as inhibition of ATP-induced ROS production at 50 uM incubated for 1 hr by using H2DCF-DA probe based fluorescence assay
[10] = molecular target: T1, P2X purinoceptor 7 (Mus musculus); experiment: Antagonist activity at P2X7R in mouse N2a cells assessed as reduction in ATP-induced EtBr uptake by cells incubated for 1 hr by fluorescence based assay relative to control; settings: concentration not given here
[11] = molecular target: T1, P2X purinoceptor 7 (Mus musculus); experiment: Antagonist activity at P2X7R in mouse N2a cells assessed as inhibition of ATP-induced NO production by measuring NO level at 1 uM incubated for 1 hr by using DAF-FM probe based fluorescence assay relative to control; design: scale not given: the % may be the effect or the level left
[12] = molecular target: T1, P2X purinoceptor 7 (Mus musculus); experiment: Antagonist activity at P2X7R in mouse N2a cells assessed as inhibition of ATP-induced ROS production at 1 uM incubated for 1 hr by using H2DCF-DA probe based fluorescence assay relative to control
[13] = system: N2a; experiment: Cytotoxicity against mouse N2a cells assessed as reduction in cell viability incubated for 24 hrs by MTT assay
[14] = molecular target: T1, P2X purinoceptor 7 (Mus musculus); experiment: Antagonist activity at P2X7R in mouse N2a cells assessed as cytoprotective activity against ATP-induced cell death by measuring increase in cell viability at 0.1 to 5 uM incubated for 1 hr followed by ATP addition and measured after 48 hrs by MTT assay; settings: dose 0.1-5 µM, time 49.0 hrs
[15] = molecular target: T1, P2X purinoceptor 7 (Mus musculus); experiment: Antagonist activity at P2X7R in mouse N2a cells assessed as reduction in ATP-induced calcium influx at 5 uM incubated for 1 hr by Fluo-3AM dye based laser scanning microscopy
[16] = molecular target: T1, P2X purinoceptor 7 (Mus musculus); experiment: Antagonist activity at P2X7R in mouse N2a cells assessed as reduction in ATP-induced YO-PRO-1 uptake by cells incubated for 1 hr by fluorescence based assay; settings: dose 0.1-10 µM
[17] = molecular target: T1, P2X purinoceptor 7 (Mus musculus); experiment: Antagonist activity at P2X7R in mouse N2a cells assessed as reduction in ATP-induced EtBr uptake by cells at 0.1 to 10 uM incubated for 1 hr by fluorescence based assay; settings: dose 0.1-10 µM
[18] = molecular target: T1, P2X purinoceptor 7 (Mus musculus); experiment: Antagonist activity at P2X7R in mouse N2a cells assessed as inhibition of ATP-induced NO production by measuring NO level at 10 uM incubated for 1 hr by using DAF-FM probe based fluorescence assay relative to control; design: scale not given: the % may be the effect or the level left
[19] = molecular target: T1, P2X purinoceptor 7 (Mus musculus); experiment: Antagonist activity at P2X7R in mouse N2a cells assessed as cytoprotective activity against ATP-induced cell death by measuring increase in cell viability at 1 uM incubated for 1 hr followed by ATP addition and measured after 48 hrs by MTT assay relative to control; settings: time 49.0 hrs
[20] = molecular target: T1, P2X purinoceptor 7 (Mus musculus); experiment: Antagonist activity at P2X7R in mouse N2a cells assessed as reduction in ATP-induced YO-PRO-1 uptake by cells at 5 uM incubated for 1 hr by fluorescence imaging based laser scanning microscopic analysis
[21] = molecular target: T1, P2X purinoceptor 7 (Mus musculus); experiment: Antagonist activity at P2X7R in mouse N2a cells assessed as inhibition of ATP-induced ROS production at 0.1 uM incubated for 1 hr by using H2DCF-DA probe based fluorescence assay relative to control
[22] = molecular target: T1, P2X purinoceptor 7 (Mus musculus); experiment: Antagonist activity at P2X7R in mouse N2a cells assessed as inhibition of ATP-induced NO production at 0.1 to 10 uM incubated for 1 hr by using DAF-FM probe based fluorescence assay; settings: dose 0.1-10 µM

SMILES: CCOc1ccc(Nc2ccc(/C(=C3C=C/C(=[N+](/CC)Cc4cccc(S(=O)(=O)[O-])c4)C=C/3C)c3ccc(N(CC)Cc4cccc(S(=O)(=O)O)c4)cc3C)cc2)cc1
inhibition [2]: 46% | inhibition [3]: Active | inhibition [4]: Active | inhibition [5]: Active | Activity [6]: 14.6%

SMILES: Cc1cc(/N=N/c2ccc(S(=O)(=O)O)cc2S(=O)(=O)O)c(COP(=O)(O)O)c(C=O)c1O
inhibition [7]: Active | inhibition [8]: Active | inhibition [9]: Active

SMILES: O=C1C2=C(S[C@H]3O[C@@H](CO)[C@H](O)[C@@H](O)[C@@H]3O2)C(=O)c2ccccc21
inhibition [16]: Dose-dependent effect | inhibition [17]: Active | inhibition [10]: 42.6% | inhibition [4]: 46.2% | Activity [18]: 44.5% | inhibition [1]: 32.7% | Activity [19]: 19.6% | EC50 [13]: 29.5 µM | inhibition [20]: Active | inhibition [21]: 66.3%

SMILES: COC1=C(S[C@@H]2O[C@H](CO)[C@@H](O)[C@H](O)[C@H]2O)C(=O)c2ccccc2C1=O
inhibition [16]: Dose-dependent effect | inhibition [10]: 34.8% | inhibition [4]: 60.9% | inhibition [22]: inactive | inhibition [1]: 15.1% | Activity [19]: 22.2% | EC50 [13]: 75.2 µM | inhibition [21]: 69.8%

Continued, in another order:

inhibition [1]: 90%
SMILES: Clc1cccc(-c2nnnn2Cc2cccnc2)c1Cl

inhibition [10]: 18.3% | Activity [11]: 48.5% | inhibition [4]: 20.7% | inhibition [1]: 36% | inhibition [12]: 58.4% | inhibition [15]: Active
SMILES: Cc1c(C)c(O)c2c(c1O)C(=O)C1=C(S[C@H]3O[C@@H](CO)[C@H](O)[C@@H](O)[C@@H]3O1)C2=O
EC50 [13]: 22.6 µM | Activity [14]: inactive

inhibition [16]: Dose-dependent effect | inhibition [10]: 25.2% | Activity [11]: 56.8% | inhibition [4]: 54.1% | inhibition [1]: inactive | inhibition [12]: 70.9%
SMILES: COC1=C(S[C@@H]2O[C@H](COC(C)=O)[C@@H](OC(C)=O)[C@H](OC(C)=O)[C@H]2OC(C)=O)C(=O)c2c(O)c(C)c(C)c(O)c2C1=O
EC50 [13]: 17.8 µM | Activity [14]: inactive
